According to PMC11864945 (Frontiers in Pharmacology, 2025):
Read-outs that look alike come from different tables or passages of the source.

Experiments:
[1] = beagle, dog, in vivo; for AUC0–30 / AUC0–inf / Cmax / Kel (elimination rate constant) / Tmax / t1/2 (elimination half–life): po
Protocol: (§1) Adaptive feeding and observation were carried out for 7 days before the bioequivalence study. Physical examination, blood routine and blood biochemical tests were performed the day before the trial to ensure the health of the dogs. […] The subjects were orally administered a single dose of test or reference formuations with 100 mL of water with a washout period of 2 weeks. Blood samples were collected into heparinized tubes at 0.00 (pre–dose), 0.17, 0.33, 0.67, 1.00, 1.50, 2.00, 2.50, 3.00, 4.00, 5.00, 6.00, 7.00, 8.00, 9.00, 10.00, 11.00, 12.00, 14.00, 24.00 and 30.00 h after oral administration. […] The number of blood collections for drug analysis was 21 samples in each study period. The collected blood samples were centrifuged in a pre–cooled centrifuge at 2,150 g for 10 min, and the separated plasma was transferred to a clean centrifuge tube and frozen in a −80°C refrigerator until analysis.
(§2) The pharmacokinetic parameters for the analytes were evaluated by non–compartmental analysis using Phoenix WinNonlin software version 8.1 (Certara Corporation, Radnor, PA, United States). The maximum plasma concentration (Cmax), the area under the plasma concentration-time curve from time zero to the last sampling time (AUC0–30), the area under the plasma concentration-time curve from time zero to infinity (AUC0–inf), as the primary target, and their geometric mean ratios (test/reference) using log transformed data were assessed to determine whether the formulations were pharmacokinetically equivalent.
(§3) The study was conducted as an open label, balanced, randomized, crossover, two–treatment, two–period, two–sequence and single–dose design to compare the bioavailability of PYR, PRA, FBT, FEN and OXF between two products in 38 healthy beagle dogs. Each subject received a tablet from the test product (Self–developed preparation) and a tablet from reference product (Drontal® Plus Flavor) under fasting conditions with a washout period of 2 weeks.

[2] = Stability of the analytes in beagle dog plasma (bench top, refrigerator, freeze–thaw, autosampler, short and long term storage); type: physicochemical; conditions: for Mean stability sample ±SD: n = 5
Protocol: Stability experiments were conducted in working solutions of the analytes and IS for short term stability at 4°C and stock solutions for long term stability at −20°C, respectively. Peak area ratio responses (Analytes/IS) of stored solutions were compared with those of freshly prepared solutions. The acceptance criterion was ±10.0% deviation when comparing the values of fresh solutions. The stabilities of the analytes in beagle dog plasma were evaluated by analyzing five replicates at LQC and HQC levels. Types of stabilities were following as: bench top stability (room temperature), refrigerator stability (4°C), autosampler stability for processed samples (6°C), freeze–thaw stability (−80°C), short term stability (−20°C) and long term (–80°C) storage stability.

[3] = in vivo; conditions: beagle, dog, po; for AUC(0-t): AUC0–30; for AUC(0-inf): AUC0–inf; for k el: Kel (elimination rate constant); for half-life: t1/2 (elimination half–life)
Protocol: as §1, §2, §3

[4] = Bioequivalence / pharmacokinetic study of compound febantel tablets after single oral dose, plasma levels by UPLC–MS/MS; conditions: beagle, dog, 38 beagle dogs, fasting, mean ± SD; for AUC(0-inf): AUC0–inf; for k el: Kel (elimination rate constant); for half-life: t1/2 (elimination half–life)
Protocol: as §1, §2, §3

[5] = autosampler, 6°C, 55 h, processed plasma samples, HQC
[6] = autosampler, 6°C, 55 h, processed plasma samples, LQC
[7] = bench top, room temperature, 8 h, dog plasma, HQC (added 180 ng/mL PYR/OXF, 675 PRA, 90 FBT, 450 FEN)
[8] = bench top, room temperature, 8 h, dog plasma, HQC, % of nominal concentration
[9] = bench top, room temperature, 8 h, dog plasma, LQC (added 12 ng/mL PYR/OXF, 45 PRA, 6 FBT, 30 FEN)
[10] = bench top, room temperature, 8 h, dog plasma, LQC, % of nominal concentration
[11] = freeze–thaw after 3rd cycle at −80°C, dog plasma, HQC
[12] = freeze–thaw after 3rd cycle at −80°C, dog plasma, LQC
[13] = long term, −80°C, 120 days, dog plasma, HQC
[14] = long term, −80°C, 120 days, dog plasma, LQC
[15] = refrigerator, 4°C, 30 h, dog plasma, HQC
[16] = refrigerator, 4°C, 30 h, dog plasma, LQC
[17] = short term, −20°C, 48 h, dog plasma, HQC
[18] = short term, −20°C, 48 h, dog plasma, LQC
[19] = reference product (R), single oral tablet
[20] = test product (T), single oral tablet

Compound | Mean stability sample ±SD [2, 5] | Accuracy [2, 6] | Mean stability sample ±SD [2, 6] | Mean stability sample ±SD [2, 7] | Accuracy [2, 8] | Mean stability sample ±SD [2, 9] | Accuracy [2, 10] | Accuracy [2, 11] | Mean stability sample ±SD [2, 11] | Accuracy [2, 12] | Mean stability sample ±SD [2, 12] | Accuracy [2, 13] | Mean stability sample ±SD [2, 13] | Accuracy [2, 14] | Mean stability sample ±SD [2, 14] | Accuracy [2, 15] | Mean stability sample ±SD [2, 15] | Accuracy [2, 16] | Mean stability sample ±SD [2, 16] | Accuracy [2, 17] | other results
COC(=O)Nc1nc2ccc(Sc3ccccc3)cc2[nH]1 [Fenbendazole, fenbendazole] | 457.91 ± 24.20 ng/mL | 100.87% | 30.26 ± 0.97 ng/mL | 412.09 ± 6.95 ng/mL | 91.58% | 28.75 ± 0.77 ng/mL | 95.83% | 99.49% | 447.72 ± 13.36 ng/mL | 98.82% | 29.65 ± 1.05 ng/mL | 101.31% | 455.87 ± 11.17 ng/mL | 102.31% | 30.69 ± 0.89 ng/mL | 97.40% | 438.32 ± 14.73 ng/mL | 97.04% | 29.11 ± 1.92 ng/mL | 104.58% | AUC0–30 [1]: 1,689.33 ± 881.68 h. ng/mL; AUC0–inf [1]: 1,893.90 ± 934.66 h ng/mL; Cmax [1]: 212.35 ± 104.41 ng/mL; Kel (elimination rate constant) [1]: 0.15 ± 0.07 h⁻¹; Tmax [1]: 5.20 ± 3.10 h; t1/2 (elimination half–life) [1]: 5.76 ± 3.70 h; Mean stability sample ±SD [2, 17]: 470.60 ± 13.89 ng/mL; Accuracy [2, 18]: 103.13%; Mean stability sample ±SD [2, 18]: 30.94 ± 2.18 ng/mL; AUC(0-t) [3]: 1440 ng·h/mL; AUC(0-inf) [3]: 1680 ng·h/mL; k el [3]: 4.44e-05 s⁻¹; Tmax [3]: 5 ± 3.56 h; half-life [3]: 6.96 ± 8.33 h
O=C(C1CCCCC1)N1CC(=O)N2CCc3ccccc3C2C1 (stereo not drawn) [Praziquantel, praziquantel] | 729.27 ± 27.29 ng/mL | 103.68% | 46.65 ± 1.23 ng/mL | 645.65 ± 11.69 ng/mL | 95.65% | 44.28 ± 0.95 ng/mL | 98.41% | 99.19% | 669.52 ± 14.97 ng/mL | 98.12% | 44.15 ± 2.42 ng/mL | 91.14% | 615.17 ± 19.69 ng/mL | 94.44% | 42.50 ± 4.13 ng/mL | 96.95% | 654.44 ± 29.69 ng/mL | 98.16% | 44.17 ± 3.20 ng/mL | 108.18% | GMR (Test/Reference) of AUC0–30 [1]: 101.83%; GMR (Test/Reference) of AUC0–inf [1]: 101.79%; GMR (Test/Reference) of Cmax [1]: 97.63%; AUC0–30 [1]: 3,267.67 ± 1827.15 h. ng/mL; AUC0–inf [1]: 3,317.89 ± 1838.60 h ng/mL; Cmax [1]: 957.04 ± 537.42 ng/mL; Kel (elimination rate constant) [1]: 0.45 ± 0.12 h⁻¹; Tmax [1]: 1.48 ± 0.67 h; t1/2 (elimination half–life) [1]: 1.65 ± 0.46 h; Accuracy [2, 5]: 108.04%; Mean stability sample ±SD [2, 17]: 730.20 ± 19.11 ng/mL; Accuracy [2, 18]: 100.34%; Mean stability sample ±SD [2, 18]: 45.15 ± 3.68 ng/mL; AUC(0-t) [3]: 3320 ng·h/mL; AUC(0-inf) [3]: 3370 ng·h/mL; k el [3]: 0.000122 s⁻¹; Tmax [3]: 1.45 ± 1.05 h; half-life [3]: 1.66 ± 0.41 h
COC(=O)Nc1nc2ccc([S+]([O-])c3ccccc3)cc2[nH]1 (stereo not drawn) [Qxfendazole, oxfendazole] | 192.72 ± 8.41 ng/mL | 106.85% | 12.82 ± 0.85 ng/mL | 162.16 ± 2.99 ng/mL | 90.09% | 12.08 ± 1.02 ng/mL | 100.65% | 97.23% | 175.01 ± 5.08 ng/mL | 100.97% | 12.12 ± 0.84 ng/mL | 97.64% | 175.76 ± 5.23 ng/mL | 93.96% | 11.28 ± 0.62 ng/mL | 96.84% | 174.31 ± 5.37 ng/mL | 95.50% | 11.46 ± 0.74 ng/mL | 105.41% | Accuracy [2, 5]: 107.07%; Mean stability sample ±SD [2, 17]: 189.73 ± 8.17 ng/mL; Accuracy [2, 18]: 98.29%; Mean stability sample ±SD [2, 18]: 11.80 ± 0.79 ng/mL; AUC(0-t) ([4]; AUC0–30, reference product (R), single oral tablet): 2100 ng·h/mL; AUC(0-t) ([4]; AUC0–30, test product (T), single oral tablet): 1790 ng·h/mL; AUC(0-inf) [4, 19]: 2550 ng·h/mL; AUC(0-inf) [4, 20]: 1910 ng·h/mL; Cmax ([4]; reference product (R, Drontal Plus), single oral tablet): 224 ± 112 ng/mL; Cmax ([4]; test product (T), single oral tablet (150 mg FBT, 144 mg pyrantel pamoate, 50 mg PRA)): 184 ± 95.7 ng/mL; k el [4, 19]: 6.11e-05 s⁻¹; k el [4, 20]: 6.67e-05 s⁻¹; Tmax [4, 19]: 6.97 ± 3.47 h; Tmax [4, 20]: 7.08 ± 2.65 h; half-life [4, 19]: 4.17 ± 2.45 h; half-life [4, 20]: 3.83 ± 3.03 h
